Like-named read-outs stand apart in the source and are kept apart here.
Experiments:
[1] = tested on: contorsions as induced by acetic acid; assay: analgesic activity, contorsions induced by acetic acid by intraperitoneal route in the rat (Koster et al); type: in vivo; conditions: ip
[2] = tested on: paw edema as induced by carrageenin; assay: anti-inflammatory activity, paw edema induced by carrageenin in the female rat (Winter et al); type: in vivo; conditions: po
[3] = analgesic activity, acetic acid contorsions (i.p.), rat, p.os, read-out: ED50
[4] = anti-inflammatory activity, carrageenin paw edema, female rat, p.os, read-out: ED50

Row | Compound | ED50 [1, 3] [mg/kg] | ED50 [2, 4] [mg/kg] | ED50 ([2]; Rattus norvegicus) [mg/kg] | ED50 ([1]; Rattus norvegicus) [mg/kg]
1 | Cc1cc(CC(=O)O)n(C)c1C(=O)c1ccc(Cl)cc1 [Example 2, acetic acid] | 2.5 | 1.7 | – | –
2 | CCn1c(CC(=O)O)cc(C)c1C(=O)c1ccc(Cl)cc1 [Example 3] | 31 | 21.2 | – | –
3 | CCn1c(CC(=O)O)cc(C)c1C(=O)c1ccccc1 [Example 4] | 82 | 48 | – | –
4 | COc1ccc2c(c1)c(CC(=O)O)c(C)n2C(=O)c1ccc(Cl)cc1 [Indomethacin, reference compound] | – | – | 2.85 | –
5 | CC(=O)Oc1ccccc1C(=O)O [acetyl salicylic acid, reference compound] | – | – | – | 110
